Reference: patent US5443986A, “Enzymatic analysis using substrates that yield fluorescent precipitates” (Molecular Probes, Inc., priority 1993, dated 1995)

Biological target: alkaline phosphatase (Bos taurus, UniProt P19111)
Type: biochemical
Parameters: mature GPI-type homodimer
Details: 0.1M TRIS pH 10.3, 50 mM NaCl, 10 mM MgCl2, 0.1 mM ZnCl2; double-reciprocal plot
Description: As compared with other synthetic substrates, the fluorogenic precipitating substrates described in this invention normally have high enzymatic turnover rates and moderate affinities for the enzymes. Turnover rates of the substrates can be determined as in Example 10 and expressed as micromoles of product per minute per milligram protein (k2, in units of μmol·min^-1 ·mg^-1). The affinity of the substrate is determined by its dissociation constant, KM, in millimolar units. The enzymes can bind to and catalyze conversion of the soluble substrates into detectable reaction products that are apparently less soluble and will precipitate in aqueous solutions. The preferred detectable reaction products are fluorescent precipitates. The precipitation, however, and thus fluorescence, depends on the reaction product concentration or the initial substrate concentration used, as well as the ionization state of the product's phenol group. There are two parameters determining the precipitation, i.e. critical concentration (Mc) and pH dependence (pKa). A method for determination of these parameters is given in Example 11. Table 10 gives the relevant parameters for the enzymatic reaction and precipitation of quinazolinone-based alkaline phosphatase substrates.
4). Kinetic assay of some of the substrates. The specific activity (k2, in a unit of micromole per minute per milligram protein) and Michaelis constant (KM, in a unit of millimole) for hydrolysis of the substrates by the enzyme are listed in Table 10. All of the specific enzymatic reactions are made in the following buffers:
For alkaline phosphatase: 0.1M TRIS pH 10.3 containing 50 mM NaCl, 10 mM MgCl2 and 0.1 mM ZnCl2.
Because the kinetic assay involves variable amounts of precipitate with variable light scattering, measurement in the fluorometer as described above cannot be used here. Instead, a fluorescence plate reader with front-face measurement geometry such as the CytoFluor™ 2300 (Millipore, Bedford, Mass.) is preferred for quantitating the precipitate. The following protocol illustrates the kinetic assay.
4.1 ). In a 96-well plate, pipette 200 μL of a phosphatase substrate in the alkaline phosphatase reaction buffer with a final concentration of 2 to 6 mM, then add 50 μL 1 mg/mL alkaline phosphatase. […] Fluorescence of the precipitate is measured in the CytoFluor with appropriate sensitivity and excitation and emission settings as have been determined with the fluorometer. The fluorescence signal versus the amount of the precipitate is then established for each substrate.
4.2). […] Read the fluorescence of the resulting precipitate after 10 minutes reaction time and calculate the precipitate formation rate per minute by use of the determined fluorescence signal versus the amount of the precipitate. […]

alkaline phosphatase, sequence (P19111 20-506): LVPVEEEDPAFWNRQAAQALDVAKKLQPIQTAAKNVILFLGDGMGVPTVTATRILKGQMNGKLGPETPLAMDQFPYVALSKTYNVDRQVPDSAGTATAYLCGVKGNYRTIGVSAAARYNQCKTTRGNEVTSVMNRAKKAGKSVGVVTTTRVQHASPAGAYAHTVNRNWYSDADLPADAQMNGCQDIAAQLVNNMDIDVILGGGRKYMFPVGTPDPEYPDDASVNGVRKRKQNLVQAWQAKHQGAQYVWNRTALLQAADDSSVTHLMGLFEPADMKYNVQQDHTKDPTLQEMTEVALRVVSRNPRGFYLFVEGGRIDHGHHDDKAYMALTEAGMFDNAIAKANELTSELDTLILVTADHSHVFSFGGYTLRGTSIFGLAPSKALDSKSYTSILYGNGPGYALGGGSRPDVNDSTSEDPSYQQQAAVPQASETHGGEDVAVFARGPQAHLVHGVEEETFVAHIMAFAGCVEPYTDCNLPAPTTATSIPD

Compound: O=c1[nH]c(-c2cc(Cl)ccc2OP(=O)(O)O)nc2ccc(Cl)cc12 [8e, Ammonium 2-(5'-chloro-2'-phosphoryloxyphenyl)-6-chloro-4-(3H)-quinazolinone]
- k2 (specific activity, turnover rate): 618.60 µmol/min/mg
